# From PubChem BioAssay AID1996
# Details: buffer; pH 7.4; 200.0 µM
row,Structure (SMILES),solubility kinetic [µg/mL]
1,C=CCNc1nc(N)c([N+](=O)[O-])c(NCCO)n1,> 38.1
2,CC(=O)c1ccc(S(=O)(=O)NC2CC2)cc1,26.1
3,CCCCc1ncc(CN2CCN(Cc3ccc(C)cc3)C(CCO)C2)[nH]1 (configuration not stated),49.1
4,COc1ccc(-c2nc3n(c(=O)c2C#N)CCS3)c(OC)c1,> 47.3
5,CC(c1ccccc1)C1CC(=O)N(c2ccc([N+](=O)[O-])cc2)C1=O (configuration not stated),32.5
6,O=C(/C=C/c1cccc(F)c1)OCC(=O)c1ccc[nH]1,7.5
7,Cc1ccc(S(=O)(=O)NCCC2=CCCCC2)cc1,23
8,O=C(Nc1ccccc1N1CCOCC1)c1ccc2ccccc2c1,0.8
9,CCOC(=O)C1(Cc2ccccc2)CCCN(Cc2ccncc2)C1 (configuration not stated),31.3
10,O=C(O)/C=C/c1ccc(-n2ccnc2)cc1,> 32.1
11,O=C(O)/C(=C\c1ccco1)NC(=O)c1ccco1,> 37.1
12,CCOC(=O)CCNCc1ccc(F)cc1.Cl,> 39.3
13,COc1ccc(CN2CCc3c([nH]c4ccccc34)C2)cc1Br,9.8
14,COc1ccc(CCNC(=O)COC(=O)c2ccc(S(=O)(=O)N3CCCC3)cc2)cc1OC,7.2
15,CN(CCc1ccccn1)c1ccc([N+](=O)[O-])cn1,38.1
16,CCOC(=O)c1c(-c2cccs2)csc1N,26.8
17,O=C(O)c1cccc(NC(=O)c2ccccc2NC(=O)c2cccc([N+](=O)[O-])c2)c1,48.3
18,O=C(O)c1cccnc1SCC(=O)C12CC3CC(CC(C3)C1)C2,> 49.7
19,CC1CN(Cc2cc(=O)oc3cc(O)ccc23)CC(C)O1 (configuration not stated),> 43.4
20,N#C/C(=C\c1ccc(O)cc1)C(=O)N1CCCC1,30.1
21,O=C(NCc1ccc2c(c1)OCO2)NC12CC3CC(CC(C3)C1)C2,1.3
22,COc1ccc(OC)c(Cc2nnc(CCC(=O)N3CCCCCC3)o2)c1,> 56
23,COCc1[nH]c(=S)[nH]c(=O)c1C,> 27.9
24,N/C(=N\OC(=O)CCC1CCCC1)c1ccc(Cl)cc1,1.2
25,CCOc1ccc(S(=O)(=O)N2CCCCC2)cc1NC(=O)c1cccnc1OCC,1.2

# Continued, values first:
row,solubility kinetic [µg/mL],Structure (SMILES)
1,2,O=C(CN1c2cccc3cccc(c23)S1(=O)=O)NCCc1ccccc1
2,35,Cn1c(CNc2ccc(O)cc2)nc2ccccc21
3,43.4,O=C(NCCCNC(=O)c1ccccc1F)c1ccco1
4,< 0.4,CC(=O)c1sc(NC(=O)CCCOc2ccccc2C)nc1C
5,> 54.2,Cn1c(=O)n(C)c2cc(S(=O)(=O)Nc3ccccc3C(=O)O)ccc21
6,> 53.2,Cc1ccccc1Nc1nc(N)nc(COC(=O)c2c(C)noc2C)n1
7,3.9,COc1ccc(-n2c(C)cc(/C=C3\SC(=O)NC3=O)c2C)cc1
8,1.4,O=C(Cc1ccc(F)cc1)Nc1nc(-c2ccc(F)c(F)c2)cs1
9,> 46.3,COc1ccccc1NC(=O)CCSc1nc(C)cs1
10,> 47.5,COc1ccc(CNC(=O)C(=O)NCCCn2ccnc2)cc1
11,37.2,COc1ccc(S(=O)(=O)NCc2cccnc2)c2ccccc12
12,> 43.2,COc1ccc(C(C)=O)cc1Cn1c(=O)cc(C)[nH]c1=O
13,< 0.7,O=C(COc1ccc(Cl)cc1Cl)NC(=O)c1ccccc1
14,19.7,Cc1cc(C)c(S(=O)(=O)NCCc2ccncc2)c(C)c1
15,35.9,O=C(CCCc1c[nH]c2ccccc12)Nc1ncccc1O
16,42.1,O=C(O)c1nccnc1C(=O)NCCc1c[nH]c2ccccc12
17,4.5,COC(=O)c1ccc(NC(=O)CCOc2ccccc2)cc1
18,> 43.6,O=C(COc1ccccc1)NCC(=O)NC1CCCCC1
19,> 59.4,Cc1c(C(=O)Nc2c(C)n(C)n(-c3ccccc3)c2=O)oc2ccc(Cl)cc12
20,> 43.7,O=C(CCCn1cnc([N+](=O)[O-])n1)Nc1cccc(O)c1
21,> 33.8,COn1c(-c2ccccc2)nc2ncccc21
22,> 41.5,COC(=O)CCCSc1nccn1-c1ccccc1
